Measured values reported in ChEMBL document CHEMBL3885861, “Open TG-GATES”.

Organism: Rattus norvegicus
Test: Open TG-GATES - Regimen: Daily Repeat
Format: toxicity, organism-based, Sprague-Dawley
Parameters: regimen Daily Repeat, gender Male, age 6 weeks
Conditions: in vivo, po, 6 mg/kg, route gavage, dose level High; for APTT / Bas / Eos / Fbg / Hb / Ht / Lym / MCH / MCHC / MCV / Mono / Neu / PT / Plat / RBC / Ret / WBC: tissue Blood
[1] = 72 h, tissue Kidney, time 3 day
[2] = 72 h, tissue Plasma, time 3 day

O=NN(CCCl)C(=O)NC1CCCCC1 [LOMUSTINE]
TERMINAL_BW (72 h, time 3 day): 213.1 g | APTT (72 h, time 3 day): 16.1 s | Bas (72 h, time 3 day): 0% | Eos (72 h, time 3 day): 0.6% | Fbg (72 h, time 3 day): 212.8 mg/dL | Hb (72 h, time 3 day): 13 g/dL | Ht (72 h, time 3 day): 38.9% | Lym (72 h, time 3 day): 86% | MCH (72 h, time 3 day): 21.3 pg | MCHC (72 h, time 3 day): 33.3% | MCV (72 h, time 3 day): 64.1 fL | Mono (72 h, time 3 day): 5.6% | Neu (72 h, time 3 day): 8% | PT (72 h, time 3 day): 11.9 s | Plat (72 h, time 3 day): 114.8 x10_4/uL | RBC (72 h, time 3 day): 607.2 x10_4/ul | Ret (72 h, time 3 day): 6.1% | WBC (72 h, time 3 day): 100.8 x10_2/uL | KIDNEY_L [1]: 1 g | KIDNEY_R [1]: 1 g | KIDNEY_TOTAL [1]: 2 g | LIVER (72 h, tissue Liver, time 3 day): 10.2 g | A/G [2]: 2.2 | ALP [2]: 1003.2 IU/L | ALT [2]: 30.4 IU/L | AST [2]: 65 IU/L | BUN [2]: 15.6 mg/dL | CRE [2]: 0.5 mg/dL | Ca [2]: 10.8 mg/dL | Cl [2]: 104.8 meq/L | DBIL [2]: 0.028 mg/dL | GLC [2]: 179 mg/dL | IP [2]: 9 mg/dL | K [2]: 4.7 meq/L | LDH [2]: 105.4 IU/L | Na [2]: 139 meq/L | PL [2]: 136.6 mg/dL | RALB [2]: 3.9 g/dL | TBIL [2]: 0.3 mg/dL | TC [2]: 75.6 mg/dL | TG [2]: 56.4 mg/dL | TP [2]: 5.8 g/dL | gamma-GTP [2]: 1.8 IU/L | TERMINAL_BW ([…], time 7 day): 225.8 g | TERMINAL_BW ([…], time 14 day): 229.7 g | TERMINAL_BW ([…], time 28 day): 202.6 g | APTT ([…], time 7 day): 15.7 s | Bas ([…], time 7 day): 0% | Eos ([…], time 7 day): 0.4% | Fbg ([…], time 7 day): 237.4 mg/dL | Hb ([…], time 7 day): 14.3 g/dL | Ht ([…], time 7 day): 43.1% | Lym ([…], time 7 day): 80.6% | MCH ([…], time 7 day): 20.9 pg | MCHC ([…], time 7 day): 33.3% | MCV ([…], time 7 day): 62.9 fL | Mono ([…], time 7 day): 8.8% | Neu ([…], time 7 day): 10.2% | PT ([…], time 7 day): 11.7 s | Plat ([…], time 7 day): 124 x10_4/uL | RBC ([…], time 7 day): 686.4 x10_4/ul | Ret ([…], time 7 day): 3.4% | WBC ([…], time 7 day): 73.5 x10_2/uL | APTT ([…], time 14 day): 15.8 s | Bas ([…], time 14 day): 0% | Eos ([…], time 14 day): 0.6% | Fbg ([…], time 14 day): 237.4 mg/dL | Hb ([…], time 14 day): 15.1 g/dL | Ht ([…], time 14 day): 44.8% | Lym ([…], time 14 day): 75.4% | MCH ([…], time 14 day): 20.1 pg | MCHC ([…], time 14 day): 33.7% | MCV ([…], time 14 day): 59.8 fL | Mono ([…], time 14 day): 14.4% | Neu ([…], time 14 day): 9.6% | PT ([…], time 14 day): 11.2 s | Plat ([…], time 14 day): 133.2 x10_4/uL | RBC ([…], time 14 day): 750 x10_4/ul | Ret ([…], time 14 day): 1.2% | WBC ([…], time 14 day): 75.3 x10_2/uL | APTT ([…], time 28 day): 15.2 s | Bas ([…], time 28 day): 0% | Eos ([…], time 28 day): 0.8% | Fbg ([…], time 28 day): 255.7 mg/dL | Hb ([…], time 28 day): 15.6 g/dL | Ht ([…], time 28 day): 45.3%
